Reference: PMC6150407, “Synthesis and In Vitro Antiproliferative Activity of 11-Substituted Neocryptolepines with a Branched ω-Aminoalkylamino Chain” (Molecules : A Journal of Synthetic Chemistry and Natural …, 2017)
Counter-ions that a name gives are not always drawn.

Assays:
[1] = system: Human lung cancer cell line (A-549); assay: Antiproliferative assay (sulforhodamine B, 72 h) against A549; format: cell-based; conditions: A549 cells, mean ± SD
Description: (§1) Anti-proliferative assays in vitro were performed in the same manner as described in the literature. The cell lines of human leukemia MV4-11, lung A549, and colon HCT 116 cancer were chosen as representing various tissue origins and BALB/3T3 normal murine fibroblasts to assess the cytotoxicity of tested compounds towards normal cells. The IC50 parameter (half-maximum inhibitory concentration) was calculated based on sulforhodamine B (HCT-116, A549, BALB/3T3) or MTT (MV4-11) assay results after 72 h of exposure. Each compound in a given concentration was tested in triplicate in each experiment, which was repeated three to five times.

[2] = system: human leukemia MV4-11 cell line; assay: Antiproliferative assay (MTT, 72 h) against human leukemia MV4-11 cell line; format: cell-based; conditions: MV4-11 cells, 72 h exposure, 50% growth inhibition, mean ± SD
Description: as §1

[3] = system: human colon adenocarcinoma cell line (HCT 116); assay: Antiproliferative assay (sulforhodamine B, 72 h) against HCT 116; format: cell-based; conditions: HCT 116 cells, mean ± SD
Description: as §1

[4] = system: normal murine embryonic fibroblast cell line (BALB/3T3); assay: Antiproliferative assay (sulforhodamine B, 72 h) against normal murine fibroblasts BALB/3T3; format: cell-based, mouse; conditions: BALB/3T3 normal murine fibroblasts, mean ± SD
Description: as §1

salmon sperm DNA = assay: DNA binding study by UV-Vis absorption spectroscopy
Description: The DNA binding studies of compound 2d were performed using UV-Vis absorption spectroscopy with salmon sperm DNA in a phosphate buffer of pH 7.0 at 20 °C. […] The maximum absorption shifted from 256 nm to 289 nm. This illustrated that the mode of 2d binding to DNA was intercalation. The binding constant of 2d to DNA was calculated as 4.12 × 10^5 L·mol^−1, according to a double-reciprocal equation.
Figure 3 (a) UV-Vis absorption spectra of compound 2d at 20 °C. C(2d) = 50 μmol/L, C(DNA) = 0.0, 0.025, 0.05, 0.075, 0.1, 0.125, 0.15, 0.175, 0.2, 0.225, 0.25 μmol/L for curves 1–11 in phosphate buffer solution (pH 7.0) (b) Plot of 1/ΔA vs. 1/[DNA] for 2d-DNA.
The commercially obtained reagents (TCI, Tokyo, Japan) were used directly without further purification. The ^1H-NMR and ^13C-NMR spectra were taken on Varian INOVA-600, Varian INOVA-400, Varian INOVA-300 (Palo Alto, CA, USA), or Bruker 400 spectrometers (Billerica, MA, USA), using CDCl3 or DMSO-d6 as a solvent and tetramethylsilane (TMS) as the internal standard. The NMR spectra of the compounds are in Supplementary Materials. […] The melting points were determined on a RFS-10 hot stage microscope (J-Science, Kyoto, Japan). The UV spectra were recorded with a U-2910 spectrophotometer (Hitachi, Tokyo, Japan) in a 1 cm path length quartz cuvette at an indicated wavelength, and the sample was dissolved in phosphate buffer with 2.5% DMSO.

[5] = system: human (HL-60) leukaemia cell line; design: method as in PMID 11099695; conditions: cited from earlier work
[6] = system: human breast cancer MDA-MB-453 cell line; design: method as in doi:10.1007/s00044-016-1508-z; conditions: MDA-MB-453 breast cancer cell line; cited from earlier work

Compound	IC50 ([2]; Homo sapiens) [nM]	IC50 ([1]; Homo sapiens, A549, 72 h) [nM]	IC50 ([3]; Homo sapiens) [nM]	other results
N.N.[Cl][Pt][Cl] [Cisplatin, reference compound]				IC50 [1]: 9870 ± 2400 nM; IC50 [2]: 2820 ± 450 nM; IC50 [3]: 8500 ± 540 nM; IC50 [4]: 8700 ± 97 nM
Cn1c2nc3ccccc3c-2c(Cl)c2ccccc21 [Compound 1a]	1310 ± 262			
Cn1c2nc3ccccc3c-2c(NCC(C)(C)CN)c2ccccc21 [Compound 2a, N-(3-Amino-2,2-dimethylpropyl)-5-methyl-5H-indolo[2,3-b]quinolin-11-amine]	150 ± 60	1510 ± 198	1260 ± 361	IC50 ([4]; Mus musculus, BALB/3T3, 72 h): 4790 ± 2020 nM
Cc1ccc2c(c1)c(NCC(C)(C)CN)c1c3ccccc3nc-1n2C [Compound 2b, N-(3-Amino-2,2-dimethylpropyl)-2,5-dimethyl-5H-indolo[2,3-b]quinolin-11-amine]	288 ± 75			
Cn1c2nc3ccccc3c-2c(NCC(C)(C)CN)c2cc(Cl)ccc21 [Compound 2c, N-(3-Amino-2,2-dimethylpropyl)-2-chloro-5-methyl-5H-indolo[2,3-b]quinolin-11-amine]	119 ± 43	1460 ± 168	1370 ± 351	IC50 ([4]; Mus musculus, BALB/3T3, 72 h): 9130 ± 844 nM
Cn1c2nc3ccccc3c-2c(NCC(C)(C)CN)c2cc(Br)ccc21 [Compound 2d, N-(3-Amino-2,2-dimethylpropyl)-2-bromo-5-methyl-5H-indolo[2,3-b]quinolin-11-amine]	308 ± 102			mode of binding to DNA (salmon sperm DNA; UV-Vis, red shift 256 nm to 289 nm and hypochromic effect, pH 7.0, 20 °C): intercalation; binding constant to DNA (salmon sperm DNA; salmon sperm DNA, phosphate buffer pH 7.0, 20 °C, double-reciprocal equation): 412000 L/mol
Cn1c2nc3ccccc3c-2c(NCC(C)(C)N)c2ccccc21 [Compound 2e, N-(2-Amino-2-methylpropyl)-5-methyl-5H-indolo[2,3-b]quinolin-11-amine]	392 ± 188			
Cc1ccc2c(c1)c(NCC(C)(C)N)c1c3ccccc3nc-1n2C [Compound 2f, N-(2-Amino-2-methylpropyl)-2,5-dimethyl-5H-indolo[2,3-b]quinolin-11-amine]	105 ± 27	1800 ± 270	2370 ± 481	IC50 ([4]; Mus musculus, BALB/3T3, 72 h): 10600 ± 330 nM
Cn1c2nc3ccccc3c-2c(NCC(C)(C)N)c2cc(Cl)ccc21 [Compound 2g, N-(2-Amino-2-methylpropyl)-2-chloro-5-methyl-5H-indolo[2,3-b]quinolin-11-amine]	453 ± 209			
Cn1c2nc3ccccc3c-2c(NCC(O)CN)c2cc(Cl)ccc21 (centres unmarked) [Compound 2h, 1-Amino-3-(2-chloro-5-methyl-5H-indolo[2,3-b]quinolin-11-ylamino)propan-2-ol]	42 ± 14	197 ± 28	138 ± 50	
Cn1c2nc3ccccc3c-2c(NCC(O)CN)c2cc(Br)ccc21 (centres unmarked) [Compound 2k, 1-Amino-3-(2-bromo-5-methyl-5H-indolo[2,3-b]quinolin-11-ylamino)propan-2-ol]	57 ± 15	199	117 ± 55	IC50 [1]: 190 ± 27 nM
CC(N)CNc1c2c3ccccc3nc-2n(C)c2ccc(Cl)cc12 (centres unmarked) [Compound 2m, N-(2-Aminopropyl)-2-chloro-5-methyl-5H-indolo[2,3-b]quinolin-11-amine]	103 ± 14	1270 ± 118	1200 ± 283	IC50 ([4]; Mus musculus, BALB/3T3, 72 h): 1020 ± 17 nM
Cn1c2nc3ccccc3c-2c(NCC(C)(C)N)c2cc(Br)ccc21 [Compound 2n, N-(2-Amino-2-methylpropyl)-2-bromo-5-methyl-5H-indolo[2,3-b]quinolin-11-amine]	78 ± 20	988 ± 164	842 ± 367	IC50 ([4]; Mus musculus, BALB/3T3, 72 h): 939 ± 18 nM
Cn1c2nc3ccccc3c-2c(NCC(C)(C)CNC(=O)Nc2ccccc2)c2ccccc21 [Compound 3a, 1-(2,2-Dimethyl-3-(5-methyl-5H-indolo[2,3-b]quinolin-11-ylamino)propyl)-3-phenylurea]	549 ± 108			
Cc1ccc2c(c1)c(NCC(C)(C)CNC(=O)Nc1ccccc1)c1c3ccccc3nc-1n2C [Compound 3b, 1-(3-(2,5-Dimethyl-5H-indolo[2,3-b]quinolin-11-ylamino)-2,2-dimethylpropyl)-3-phenylurea]	427 ± 92			
Cn1c2nc3ccccc3c-2c(NCC(C)(C)CNC(=O)Nc2ccccc2)c2cc(Cl)ccc21 [Compound 3c, 1-(3-(2-Chloro-5-methyl-5H-indolo[2,3-b]quinolin-11-ylamino)-2,2-dimethylpropyl)-3-phenylurea]	790 ± 302			
Cn1c2nc3ccccc3c-2c(NCC(C)(C)NC(=O)Nc2ccccc2)c2ccccc21 [Compound 3d, 1-(2-Methyl-1-(5-methyl-5H-indolo[2,3-b]quinolin-11-ylamino)propan-2-yl)-3-phenylurea]	464 ± 141			
Cn1c2nc3ccccc3c-2c(NCC(C)(C)CNC(=S)Nc2ccccc2)c2ccccc21 [Compound 4a, 1-(2,2-Dimethyl-3-(5-methyl-5H-indolo[2,3-b]quinolin-11-ylamino)propyl)-3phenylthiourea]	680 ± 215			
Cn1c2nc3ccccc3c-2c(NCC(C)(C)NC(=S)Nc2ccccc2)c2cc(Cl)ccc21 [Compound 4b, 1-(1-(2-Chloro-5-methyl-5H-indolo[2,3-b]quinolin-11-ylamino)-2-methylpropan-2-yl)-3-phenylthiourea]	2330 ± 1010			
COc1cccc2c1C(=O)c1c(O)c3c(c(O)c1C2=O)C[C@@](O)(C(=O)CO)C[C@@H]3O[C@H]1C[C@H](N)[C@H](O)[C@H](C)O1 [Doxorubicin HCl, reference compound]	6 ± 2	329 ± 97	390 ± 98	IC50 ([4]; Mus musculus, BALB/3T3, 72 h): 1080 ± 33 nM
Cn1c2nc3ccccc3c-2cc2ccccc21 [neocryptolepine (II), neocryptolepine]				IC50 [5]: 12700 ± 1300 nM; IC50 [6]: 7480 ± 4420 nM
